Drawing on patent publication US12570687B2, “Triterpenoid compounds, pharmaceutical compositions thereof, and their use for treating a nuclear receptor subfamily 4 group a member 1-mediated disease” (NUCMITO PHARMACEUTICALS COMPANY LIMITED, priority 2019, dated 2026), this text covers inhibition for ten compounds.

Structures are written as SMILES.

Format in all cases: cell-based
For assay [1], the system named is MDA-MB-231 (breast cancer). Put plainly: MTT antiproliferative assay, MDA-MB-231. To be noted: Homo sapiens, MDA-MB-231, 10 μM, 48 or 72 h, read-out: inhibition of cell growth, MDA-MB-231. How it is done:
(§1) The antiproliferative activity of a test compound was determined in cell lines: MDA-MB-231 (breast cancer), HepG2 (liver cancer), SW620 (colon cancer), A375 (malignant melanoma), A431 (epidermoid carcinoma), A549 (lung adenocarcinoma), and HeLa ([…]). MDA-MB-231, HepG2, SW480, SW620, A375, and A431 cells were cultured in Dulbecco's modified Eagle's medium (DMEM) containing 10% fetal bovine serum (FBS). HeLa cells were cultured in MEM/EBSS (MEM) containing 10% FBS. A549 cells were maintained in Kaighn's modification of Ham's F-12 medium containing 10% FBS. The colorimetric MTT (3-(4,5-dimethylthiazol-2-yl)-2,5-diphenyltetrazolium bromide) assay was used to measure the cell viability of different cells following treatment with the test compound.
(§2) Briefly cells were seeded in a 96 well plate at a density of 2,000-5,000 cells/well. Following attachment, the cells were treated with the test compound in media at various concentrations ranging from 0.137 to 100 μM or at a single concentration of 10 μM. After the cells were incubated at 37° C. for 48 or 72 h, MTT (20 μL, 5 mg/mL in PBS) was added to each well and the cells were incubated for another 4 h at 37° C. The supernatant was removed carefully and 150 μL of DMSO was added to each well to dissolve the MTT formazan crystals. The plate was shaken for 15-20 min and the absorbance value of each well was determined using a multi-well plate reader at 490 nm. The wells treated with DMSO were taken as a vehicle control. Data were also obtained similarly for all the replicates and the percentage viability was determined with respect to the DMSO-treated cells. The results are summarized in Table 1 below, wherein A represents no less than 80% inhibition of cell growth at 10 μM; B represents no less than 50% but less than 80% inhibition of cell growth at 10 μM; C represents no less than 30% but less than 50% inhibition of cell growth at 10 μM; and D represents less than 30% inhibition of cell growth at 10 μM.
Background: Tetrazolium dyes change colour on reduction, which living cells bring about.

Assay [2] has as its system HepG2 (liver cancer). Put plainly: MTT antiproliferative assay, HepG2. The conditions noted are these: Homo sapiens, HepG2, 10 μM, 48 or 72 h, read-out: inhibition of cell growth, HepG2. The method, then: as §1, §2
Assay [3] has as its system SW620 (colon cancer). Put plainly: MTT antiproliferative assay, SW620. The conditions noted are these: Homo sapiens, SW-620, SW620, 10 μM, 48 or 72 h, read-out: inhibition of cell growth, SW620. How it is done:
as §1, §2

Assay [4] deals with A375 (malignant melanoma). Briefly: MTT antiproliferative assay, A375. To be noted: Homo sapiens, A-375, A375, 10 μM, 48 or 72 h, read-out: inhibition of cell growth, A375. How it is done:
as §1, §2

Assay [5] relates to A431 (epidermoid carcinoma). Put plainly: MTT antiproliferative assay, A431. The conditions noted are these: Homo sapiens, A-431, A431, 10 μM, 48 or 72 h, read-out: inhibition of cell growth, A431. The method, then:
as §1, §2

For assay [6], the system named is HeLa (ovarian cancer). Briefly: MTT antiproliferative assay, HeLa. The conditions noted are these: Homo sapiens, 48 or 72 h, read-out: inhibition of cell growth, HELA. The method, then: as §1, §2
Assay [7] concerns A549 (lung adenocarcinoma). Briefly: MTT antiproliferative assay, A549. The conditions noted are these: Homo sapiens, A549, 10 μM, 48 or 72 h, read-out: inhibition of cell growth, A549. The method, then: as §1, §2

By inhibition is commonly meant the relative decrease from the control value, in per cent.

With `CO[C@@]1(C)C2=CC=C3[C@@](C)(CC[C@@]4(C)[C@@H]5C[C@](C)(C(=O)O)CC[C@]5(C)CC[C@]34C)C2=CC(=O)C1=NNC(C)=O` [Compound A51, (2R,4aS,6aS,9S,12bR,14aS,14bR)-10-(acetamidoimino)-9-methoxy-2,4a,6a,9,12b,14a-hexamethyl-11-oxo-1,2,3,4,4a,5,6,6a,9,10,11,12b,13,14,14a,14b-hexadecahydropicene-2-carboxylic acid], the inhibition at 10 µM in assay [1], in assay [2], in assay [3], in assay [4], in assay [5] and in assay [6] was less than 30% in each case. Besides, in assay [7], the inhibition at 10 µM is less than 30%.
On to `CO[C@]1(C)C(=O)C(=O)C=C2C1=CC=C1[C@@]2(C)CC[C@@]2(C)[C@@H]3C[C@](C)(C(=O)F)CC[C@]3(C)CC[C@]12C` [Compound A8, (2R,4aS,6aS,9S,12bR,14aS,14bR)-9-methoxy-2,4a,6a,9,12b,14a-hexamethyl-10,11-dioxo-1,2,3,4,4a,5,6,6a,9,10,11,12b,13,14,14a,14b-hexadecahydropicene-2-carbonyl fluoride], for which the inhibition at 10 µM in assay [1] is 50 to 80%; in assay [2], not below 80%; in assay [3] it was 50 to 80%; in assay [4], 30 to 50%; in assay [5], not below 80%; in assay [6] it was 50 to 80%. For the same compound, the inhibition at 10 µM in assay [7] is 50 to 80%.
As for `COC(=O)[C@]1(C)CC[C@]2(C)CC[C@]3(C)C4=CC=C5C(=CC(=O)C(=O)[C@@]5(C)OC)[C@]4(C)CC[C@@]3(C)[C@@H]2C1` [Compound A5, methyl (2R,4aS,6aS,9S,12bR,14aS,14bR)-9-methoxy-2,4a,6a,9,12b,14a-hexamethyl-10,11-dioxo-1,2,3,4,4a,5,6,6a,9,10,11,12b,13,14,14a,14b-hexadecahydropicene-2-carboxylate], the inhibition at 10 µM is not below 80% in assay [1]; not below 80% in assay [2]; 50 to 80% in assay [3]; 50 to 80% in assay [4]; not below 80% in assay [5]; not below 80% in assay [6]. Besides, the inhibition at 10 µM in assay [7] was 30 to 50%.
`CO[C@@]1(C)C2=CC=C3[C@@](C)(CC[C@@]4(C)[C@@H]5C[C@](C)(C(=O)O)CC[C@]5(C)CC[C@]34C)C2=CC(O)C1O` (stereo partly drawn) [Compound A29, (2R,4aS,6aS,9S,12bR,14aS,14bR)-10,11-dihydroxy-9-methoxy-2,4a,6a,9,12b,14a-hexamethyl-1,2,3,4,4a,5,6,6a,9,10,11,12b,13,14,14a,14b-hexadecahydropicene-2-carboxylic acid]: the inhibition at 10 µM is less than 30% in assay [1]; less than 30% in assay [2]; less than 30% in assay [3]; less than 30% in assay [4]; less than 30% in assay [5]; 50 to 80% in assay [6]. The inhibition at 10 µM in assay [7] is less than 30%.
With `CNC1(O)C(=O)C=C2C(=CC=C3[C@@]2(C)CC[C@@]2(C)[C@@H]4C[C@](C)(C(=O)OC)CC[C@]4(C)CC[C@]32C)[C@]1(C)OC` (stereo partly drawn) [Compound A26, methyl (2R,4aS,6aS,9S,12bR,14aS,14bR)-10-hydroxy-9-methoxy-2,4a,6a,9,12b,14a-hexamethyl-10-(methylamino)-11-oxo-1,2,3,4,4a,5,6,6a,9,10,11,12b,13,14,14a,14b-hexadecahydropicene-2-carboxylate], the inhibition at 10 µM in assay [1], in assay [2], in assay [3], in assay [4], in assay [5] and in assay [6] was 30 to 50% throughout. The inhibition at 10 µM in assay [7] is less than 30%.
For `CCCC(=O)O[C@H]1C(O)C=C2C(=CC=C3[C@@]2(C)CC[C@@]2(C)[C@@H]4C[C@](C)(C(=O)OC)CC[C@]4(C)CC[C@]32C)[C@]1(C)OC` (stereo partly drawn) [Compound A25, methyl (2R,4aS,6aS,9S,10S,12bR,14aS,14bR)-10-(butyryloxy)-11-hydroxy-9-methoxy-2,4a,6a,9,12b,14a-hexamethyl-1,2,3,4,4a,5,6,6a,9,10,11,12b,13,14,14a,14b-hexadecahydropicene-2-carboxylate], the inhibition at 10 µM in assay [1], in assay [2], in assay [3], in assay [4], in assay [5] and in assay [6] was less than 30% each time. Further, the inhibition at 10 µM in assay [7] was less than 30%.
Turning to `CO[C@@]1(C)C2=CC=C3[C@@](C)(CC[C@@]4(C)[C@@H]5C[C@](C)(C#N)CC[C@]5(C)CC[C@]34C)C2=CC(=O)[C@@H]1O` [Compound A62, (2R,4aS,6aS,9S,10R,12bR,14aS,14bR)-10-hydroxy-9-methoxy-2,4a,6a,9,12b,14a-hexamethyl-11-oxo-1,2,3,4,4a,5,6,6a,9,10,11,12b,13,14,14a,14b-hexadecahydropicene-2-carbonitrile], the inhibition at 10 µM in assay [1] is 30 to 50%; in assay [2], 30 to 50%; in assay [3], not below 80%; in assay [4] it was 30 to 50%; in assay [5], not below 80%; in assay [6], less than 30%. In addition, the inhibition at 10 µM in assay [7] lay within 30 to 50%.
Consider `COC1(C)C2=CC=C3[C@@](C)(CC[C@@]4(C)[C@@H]5C[C@](C)(C(=O)O)CC[C@]5(C)CC[C@]34C)C2=CC(=O)C1CC#N` (stereo in doubt) [Compound A38, (2R,4aS,6aS,9S,12bR,14aS,14bR)-10-(cyanomethyl)-9-methoxy-2,4a,6a,9,12b,14a-hexamethyl-11-oxo-1,2,3,4,4a,5,6,6a,9,10,11,12b,13,14,14a,14b-hexadecahydropicene-2-carboxylic acid], for which the inhibition at 10 µM in assay [1] was 30 to 50%; in assay [2], less than 30%; in assay [3], 50 to 80%; in assay [4], 30 to 50%; in assay [5], 30 to 50%; in assay [6] it was not below 80%. Further, in assay [7], the inhibition at 10 µM was less than 30%.
Take `CC(=O)OC1(C)C(=O)C(=O)C=C2C1=CC=C1[C@@]2(C)CC[C@@]2(C)[C@@H]3C[C@](C)(C(=O)O)CC[C@]3(C)CC[C@]12C` (stereo partly drawn) [Compound A3, (2R,4aS,6aS,12bR,14aS,14bR)-9-(acetyloxy)-2,4a,6a,9,12b,14a-hexamethyl-10,11-dioxo-1,2,3,4,4a,5,6,6a,9,10,11,12b,13,14,14a,14b-hexadecahydropicene-2-carboxylic acid]: the inhibition at 10 µM in assay [1] is less than 30%; in assay [2] it was less than 30%; in assay [3], less than 30%; in assay [4] it was less than 30%; in assay [5] it was not below 80%; in assay [6] it was 50 to 80%. Moreover, the inhibition at 10 µM in assay [7] was in the range of 50 to 80%.
With `CO[C@@]1(C)C2=CC=C3[C@@](C)(CC[C@@]4(C)[C@@H]5C[C@](C)(C(=O)NO)CC[C@]5(C)CC[C@]34C)C2=CC(=O)[C@@H]1O` [Compound A57, (2R,4aS,6aS,9S,10R,12bR,14aS,14bR)—N,10-dihydroxy-9-methoxy-2,4a,6a,9,12b,14a-hexamethyl-11-oxo-1,2,3,4,4a,5,6,6a,9,10,11,12b,13,14,14a,14b-hexadecahydropicene-2-carboxamide], the inhibition at 10 µM in assay [1] was 50 to 80%; in assay [2], not below 80%; in assay [3], not below 80%; in assay [4], 30 to 50%; in assay [5] it was not below 80%; in assay [6], 50 to 80%. Moreover, the inhibition at 10 µM in assay [7] was not below 80%.
